In ChEMBL document CHEMBL5113418, “Discovery of precision targeting EZH2 degraders for triple-negative breast cancer” (Eur J Med Chem, 2022):

Legend:
MDA-MB-231 = assay: Antiproliferative activity against human MDA-MB-231 cells assessed as cell growth inhibition incubated for 72 hrs by MTT assay; type: functional, cell-based; conditions: MDA-MB-231, 72 h
MDA-MB-468 = assay: Antiproliferative activity against human MDA-MB-468 cells assessed as cell growth inhibition incubated for 72 hrs by MTT assay; type: functional, cell-based; conditions: MDA-MB-468, 72 h
BT-549 = assay: Antiproliferative activity against human BT-549 cells assessed as cell growth inhibition incubated for 72 hrs by MTT assay; type: functional, cell-based; conditions: BT-549, 72 h
MCF7 = assay: Antiproliferative activity against human MCF7 cells assessed as cell growth inhibition incubated for 72 hrs by MTT assay; type: functional, cell-based; conditions: MCF7, 72 h
HL-60 = assay: Antiproliferative activity against human HL-60 cells assessed as cell growth inhibition incubated for 72 hrs by MTT assay; type: functional, cell-based; conditions: HL-60, 72 h
[1] = Antiproliferative activity against human MCF-10A cells assessed as cell growth inhibition incubated for 72 hrs by MTT assay; type: toxicity, cell-based
MV4-11 = assay: Antiproliferative activity against human MV4-11 cells assessed as cell growth inhibition incubated for 72 hrs by MTT assay; type: functional, cell-based; conditions: MV4-11, 72 h
[2] = Antiproliferative activity against human L02 cells assessed as cell growth inhibition incubated for 72 hrs by MTT assay; type: toxicity, cell-based
[3] = Antiproliferative activity against human HK-2 cells assessed as cell growth inhibition incubated for 72 hrs by MTT assay; type: toxicity, cell-based
Homo sapiens = species: Homo sapiens; assay: Binding affinity to recombinant PRC2 complex (unknown origin) assessed as association rate constant by surface plasmon resonance assay
[4] = Binding affinity to recombinant PRC2 complex (unknown origin) assessed as dissociation rate constant by surface plasmon resonance assay; design: species or system Homo sapiens
[5] = Binding affinity to recombinant PRC2 complex (unknown origin) assessed as Equilibrium dissociation constant by surface plasmon resonance assay; design: species or system Homo sapiens

Cc1cc(C)c(CNC(=O)c2cc(-c3ccc(N4CCN(C(=O)CCCCCCCC(=O)N[C@H](C(=O)N5C[C@H](O)C[C@H]5C(=O)NCc5ccc(-c6scnc6C)cc5)C(C)(C)C)CC4)nc3)cc3c2cnn3C(C)C)c(=O)[nH]1
IC50 (MDA-MB-231): 5.15 µM | IC50 (MDA-MB-468): 3.08 µM

Cc1cc(C)c(CNC(=O)c2cc(-c3ccc(N4CCN(CCNC(=O)CC56CC7CC(CC(C7)C5)C6)CC4)nc3)cc3c2cnn3C(C)C)c(=O)[nH]1
IC50 (MDA-MB-231): > 40 µM | IC50 (MDA-MB-468): 3.41 µM

CC[C@H](C)n1cc(C)c2c(C(=O)NCc3c(C)cc(C)[nH]c3=O)cc(-c3ccc(N4CCN(C(=O)CCCCCCCCc5cn(CCOCCOCCOCCOCCOCCOCCNc6cccc7c6C(=O)N(C6CCC(=O)NC6=O)C7=O)nn5)CC4)nc3)cc21 (stereo not given in full)
IC50 (MDA-MB-231): 0.64 µM | IC50 (MDA-MB-468): 0.42 µM | IC50 (BT-549): 0.55 µM | IC50 (MCF7): 22.1 µM | IC50 (HL-60): 1.67 µM | IC50 at 72 h [1]: > 40 µM | IC50 (MV4-11): 1.02 µM | IC50 at 72 h [2]: > 40 µM | IC50 at 72 h [3]: > 40 µM | Ka (Homo sapiens): 2.6 10^6/Ms | koff [4]: 0.07172 s⁻¹ | Kd [5]: 0.0275 µM

CCN(c1cc(-c2ccc(N3CCN(C(=O)CCCCCCCCc4cn(CCOCCOCCOCCOCCNc5cccc6c5C(=O)N(C5CCC(=O)NC5=O)C6=O)nn4)CC3)nc2)cc(C(=O)NCc2c(C)cc(C)[nH]c2=O)c1C)C1CCOCC1 (stereo not given)
IC50 (MDA-MB-231): 21.8 µM | IC50 (MDA-MB-468): 4.02 µM

Cc1cc(C)c(CNC(=O)c2cc(-c3ccc(N4CCN(C(=O)CCCCC(=O)N[C@H](C(=O)N5C[C@H](O)C[C@H]5C(=O)NCc5ccc(-c6scnc6C)cc5)C(C)(C)C)CC4)nc3)cc3c2cnn3C(C)C)c(=O)[nH]1
IC50 (MDA-MB-231): > 40 µM | IC50 (MDA-MB-468): > 40 µM

Cc1cc(C)c(CNC(=O)c2cc(-c3ccc(N4CCN(C(=O)CCCCCCC(=O)N[C@H](C(=O)N5C[C@H](O)C[C@H]5C(=O)NCc5ccc(-c6scnc6C)cc5)C(C)(C)C)CC4)nc3)cc3c2cnn3C(C)C)c(=O)[nH]1
IC50 (MDA-MB-231): 25.2 µM | IC50 (MDA-MB-468): 8.24 µM

Cc1cc(C)c(CNC(=O)c2cc(-c3ccc(N4CCN(C(=O)CCCCCCCCc5cn(CCOCCOCCOCCOCCNc6cccc7c6C(=O)N(C6CCC(=O)NC6=O)C7=O)nn5)CC4)nc3)cc3c2cnn3C(C)C)c(=O)[nH]1 (stereo not given)
IC50 (MDA-MB-231): 19.2 µM | IC50 (MDA-MB-468): 2.03 µM

CCN(c1cc(-c2ccc(N3CCN(C(=O)CCCCCCCCc4cn(CCOCCOCCOCCOCCOCCOCCNc5cccc6c5C(=O)N(C5CCC(=O)NC5=O)C6=O)nn4)CC3)nc2)cc(C(=O)NCc2c(C)cc(C)[nH]c2=O)c1C)C1CCOCC1 (stereo not given)
IC50 (MDA-MB-231): 1.28 µM | IC50 (MDA-MB-468): 1.07 µM

CC[C@H](C)n1cc(C)c2c(C(=O)NCc3c(C)cc(C)[nH]c3=O)cc(-c3ccc(N4CCN(C(=O)CCCCCCCCc5cn(CCOCCOCCOCCOCCOCCNc6cccc7c6C(=O)N(C6CCC(=O)NC6=O)C7=O)nn5)CC4)nc3)cc21 (stereo not given in full)
IC50 (MDA-MB-231): 11.2 µM | IC50 (MDA-MB-468): 1.29 µM

Cc1cc(C)c(CNC(=O)c2cc(-c3ccc(N4CCNCC4)nc3)cc3c2cnn3C(C)C)c(=O)[nH]1
IC50 (MDA-MB-231): > 40 µM | IC50 (MDA-MB-468): > 40 µM

Cc1cc(C)c(CNC(=O)c2cc(-c3ccc(N4CCN(C(=O)Cn5cc(CCC(=O)N[C@@H](C(=O)N6C[C@H](O)C[C@H]6C(=O)NCc6ccc(-c7scnc7C)cc6)C(C)(C)C)nn5)CC4)nc3)cc3c2cnn3C(C)C)c(=O)[nH]1
IC50 (MDA-MB-231): > 40 µM | IC50 (MDA-MB-468): > 40 µM

Cc1cc(C)c(CNC(=O)c2cc(-c3ccc(N4CCN(C(=O)CCCCCCCCc5cn(CCOCCOCCNc6cccc7c6C(=O)N(C6CCC(=O)NC6=O)C7=O)nn5)CC4)nc3)cc3c2cnn3C(C)C)c(=O)[nH]1 (stereo not given)
IC50 (MDA-MB-231): > 40 µM | IC50 (MDA-MB-468): > 40 µM

Cc1cc(C)c(CNC(=O)c2cc(-c3ccc(N4CCN(C(=O)CCCc5cn(CCOCCOCCOCCOCCOCCNc6cccc7c6C(=O)N(C6CCC(=O)NC6=O)C7=O)nn5)CC4)nc3)cc3c2cnn3C(C)C)c(=O)[nH]1 (stereo not given)
IC50 (MDA-MB-231): > 40 µM | IC50 (MDA-MB-468): 33.6 µM

Cc1cc(C)c(CNC(=O)c2cc(-c3ccc(N4CCN(C(=O)CCc5cn(CCOCCOCCOCCOCCOCCNc6cccc7c6C(=O)N(C6CCC(=O)NC6=O)C7=O)nn5)CC4)nc3)cc3c2cnn3C(C)C)c(=O)[nH]1 (stereo not given)
IC50 (MDA-MB-231): > 40 µM | IC50 (MDA-MB-468): > 40 µM

Cc1cc(C)c(CNC(=O)c2cc(-c3ccc(N4CCN(C(=O)CCCCCn5cc(CCCCCC(=O)N[C@@H](C(=O)N6C[C@H](O)C[C@H]6C(=O)NCc6ccc(-c7scnc7C)cc6)C(C)(C)C)nn5)CC4)nc3)cc3c2cnn3C(C)C)c(=O)[nH]1
IC50 (MDA-MB-231): 26.3 µM | IC50 (MDA-MB-468): 14.5 µM

Cc1cc(C)c(CNC(=O)c2cc(-c3ccc(N4CCN(C(=O)CCCCCCCCc5cn(CCOCCOCCOCCNc6cccc7c6C(=O)N(C6CCC(=O)NC6=O)C7=O)nn5)CC4)nc3)cc3c2cnn3C(C)C)c(=O)[nH]1 (stereo not given)
IC50 (MDA-MB-231): > 40 µM | IC50 (MDA-MB-468): 23.2 µM

Cc1cc(C)c(CNC(=O)c2cc(-c3ccc(N4CCN(C(=O)CCCCCn5cc(CCCCC(=O)N[C@@H](C(=O)N6C[C@H](O)C[C@H]6C(=O)NCc6ccc(-c7scnc7C)cc6)C(C)(C)C)nn5)CC4)nc3)cc3c2cnn3C(C)C)c(=O)[nH]1
IC50 (MDA-MB-231): 35.4 µM | IC50 (MDA-MB-468): 23.2 µM

CCCc1cc(C)[nH]c(=O)c1CNC(=O)c1cc(-c2ccc(N3CCN(C(C)C)CC3)nc2)cc2c1cnn2C(C)C
IC50 (MDA-MB-231): 14.7 µM | IC50 (MDA-MB-468): 7.67 µM

Cc1cc(C)c(CNC(=O)c2cc(-c3ccc(N4CCN(C(=O)CCCCCCCCc5cn(CCOCCOCCOCCOCCOCCOCCOCCNc6cccc7c6C(=O)N(C6CCC(=O)NC6=O)C7=O)nn5)CC4)nc3)cc3c2cnn3C(C)C)c(=O)[nH]1 (stereo not given)
IC50 (MDA-MB-231): 1.63 µM | IC50 (MDA-MB-468): 1.01 µM

Cc1cc(C)c(CNC(=O)c2cc(-c3ccc(N4CCN(CCCCc5cn(CCOCCOCCOCCOCCOCCNc6cccc7c6C(=O)N(C6CCC(=O)NC6=O)C7=O)nn5)CC4)nc3)cc3c2cnn3C(C)C)c(=O)[nH]1 (stereo not given)
IC50 (MDA-MB-231): 5.05 µM | IC50 (MDA-MB-468): 2.86 µM

CCN(c1cc(-c2ccc(N3CCN(C(=O)CCCCCCCCc4cn(CCOCCOCCOCCOCCOCCNc5cccc6c5C(=O)N(C5CCC(=O)NC5=O)C6=O)nn4)CC3)nc2)cc(C(=O)NCc2c(C)cc(C)[nH]c2=O)c1C)C1CCOCC1 (stereo not given)
IC50 (MDA-MB-231): 1.09 µM | IC50 (MDA-MB-468): 0.7 µM

Cc1cc(C)c(CNC(=O)c2cc(-c3ccc(N4CCN(C(=O)Cn5cc(CCCC(=O)N[C@@H](C(=O)N6C[C@H](O)C[C@H]6C(=O)NCc6ccc(-c7scnc7C)cc6)C(C)(C)C)nn5)CC4)nc3)cc3c2cnn3C(C)C)c(=O)[nH]1
IC50 (MDA-MB-231): > 40 µM | IC50 (MDA-MB-468): > 40 µM

Cc1cc(C)c(CNC(=O)c2cc(-c3ccc(N4CCN(C(=O)CCCCCn5cc(CCCCCCCCC(=O)N[C@@H](C(=O)N6C[C@H](O)C[C@H]6C(=O)NCc6ccc(-c7scnc7C)cc6)C(C)(C)C)nn5)CC4)nc3)cc3c2cnn3C(C)C)c(=O)[nH]1
IC50 (MDA-MB-231): 16.4 µM | IC50 (MDA-MB-468): 7.63 µM

Cc1cc(C)c(CNC(=O)c2cc(-c3ccc(N4CCN(C(=O)CCCCc5cn(CCOCCOCCOCCOCCOCCNc6cccc7c6C(=O)N(C6CCC(=O)NC6=O)C7=O)nn5)CC4)nc3)cc3c2cnn3C(C)C)c(=O)[nH]1 (stereo not given)
IC50 (MDA-MB-231): 30.3 µM | IC50 (MDA-MB-468): 22.3 µM

Cc1cc(C)c(CNC(=O)c2cc(-c3ccc(N4CCN(C(=O)CCCCCCCCc5cn(CCOCCOCCOCCOCCOCCNc6cccc7c6C(=O)N(C6CCC(=O)NC6=O)C7=O)nn5)CC4)nc3)cc3c2cnn3C(C)C)c(=O)[nH]1 (stereo not given)
IC50 (MDA-MB-231): 1.21 µM | IC50 (MDA-MB-468): 0.89 µM

Cc1cc(C)c(CNC(=O)c2cc(-c3ccc(N4CCN(CCCCCCc5cn(CCOCCOCCOCCOCCOCCNc6cccc7c6C(=O)N(C6CCC(=O)NC6=O)C7=O)nn5)CC4)nc3)cc3c2cnn3C(C)C)c(=O)[nH]1 (stereo not given)
IC50 (MDA-MB-231): 1.7 µM | IC50 (MDA-MB-468): 1.14 µM

Cc1cc(C)c(CNC(=O)c2cc(-c3ccc(N4CCN(C(=O)CCCCn5cc(CCCCC(=O)N[C@@H](C(=O)N6C[C@H](O)C[C@H]6C(=O)NCc6ccc(-c7scnc7C)cc6)C(C)(C)C)nn5)CC4)nc3)cc3c2cnn3C(C)C)c(=O)[nH]1
IC50 (MDA-MB-231): > 40 µM | IC50 (MDA-MB-468): > 40 µM

Cc1cc(C)c(CNC(=O)c2cc(-c3ccc(N4CCN(C(=O)Cn5cc(CCCCC(=O)N[C@@H](C(=O)N6C[C@H](O)C[C@H]6C(=O)NCc6ccc(-c7scnc7C)cc6)C(C)(C)C)nn5)CC4)nc3)cc3c2cnn3C(C)C)c(=O)[nH]1
IC50 (MDA-MB-231): > 40 µM | IC50 (MDA-MB-468): > 40 µM

Cc1cc(C)c(CNC(=O)c2cc(-c3ccc(N4CCN(C(=O)CCCCCc5cn(CCOCCOCCOCCOCCOCCNc6cccc7c6C(=O)N(C6CCC(=O)NC6=O)C7=O)nn5)CC4)nc3)cc3c2cnn3C(C)C)c(=O)[nH]1 (stereo not given)
IC50 (MDA-MB-231): 16.1 µM | IC50 (MDA-MB-468): 10.7 µM

CC[C@H](C)n1cc(C)c2c(C(=O)NCc3c(C)cc(C)[nH]c3=O)cc(-c3ccc(N4CCN(C(=O)CCCCCCCCc5cn(CCOCCOCCOCCOCCNc6cccc7c6C(=O)N(C6CCC(=O)NC6=O)C7=O)nn5)CC4)nc3)cc21 (stereo not given in full)
IC50 (MDA-MB-231): 24.4 µM | IC50 (MDA-MB-468): 4.21 µM
